Laboratory results taken from paper PMC11611271, “Rapid prediction of key residues for foldability by machine learning model enables the design of highly functional libraries with hyperstable constrained peptide scaffolds” (PLOS Computational Biology, 2024).
Where a SMILES comes first, the peptide text is derived from it. Bridges are numbered along the chain shown (N, C = ends).

Legend:
CRD7 = experiment: phage spot ELISA on CRD7; assay type: binding; details: for ELISA signal: phage spot ELISA of the clone, positive hit: signal > 0.3 and signal/noise > 2; for ELISA s/n: phage spot ELISA signal/noise ratio; for S/N: phage spot ELISA signal/noise; for S/N / ELISA: S3 Table sheet CRD7; for ELISA: phage spot ELISA signal
Text: (§1) To determine the performance of the libraries for ligand discovery we chose a panel of eight protein targets, which have no structural homology and a wide mass range (Fig 7C). We screened these eight targets with solution panning strategy and two additional plate panning for CD8α/β and CD28, thus ten panning campaigns in total. We consider clones showing spot phage ELISA signal > 0.3 and signal/noise ratio > 2 as positive hits. At least one binding hit was discovered for nine out of the ten panning campaigns, surpassing the success rate of the best DCP scaffolds reported previously. We also obtained the NGS data for these screening and the ranking of clones for their enrichment along the rounds of screening was analyzed and considered the top-ranking clones as potential hits. Based on their sequence diversity we selected 16 potential hits spanning five protein targets for peptide synthesis in their linear form. Seven of these are hits with positive phage ELISA signal and nine were selected based on NGS ranking without spot ELISA available. Subsequently, we conducted in vitro folding experiments on these peptides in various buffers. We observed a strong propensity for spontaneous folding regardless of the buffer condition. All HCP hits tested successfully folded into three-disulfide-containing product within two days in a universal buffer system (PBS, pH 7.4, 50% DMSO) without the need for a redox pair, as shown in Fig 8A. The binding of these folded peptides to their respective target proteins was confirmed using SPR (Table 4 and S1 Data) and binding kinetics are exemplified by the high-affinity peptide 5ji4-CRD7-2 (see Fig 8B). Among seven selected ELISA-positive hits, all of them were successfully synthesized and in vitro folded with three disulfide bonds and five were proven to be validated binders by SPR (Table 4). Nine peptides selected from the NGS ranking were synthesized and folded with the expected number of disulfide bonds and five of them bound to their target with affinities in the μM range as determined by SPR (Table 4). In general, binding affinities for these SPR-validated initial hits are weak, with Kd values in the micromolar range and fast on- and off-rates. There are two exceptions with binding affinities in the nanomolar range.
(§2) The 5ji4 libraries were constructed following the Kunkel mutagenesis method and the solution panning protocol was followed as previously described. After four to five rounds of binding selection, while eluted pool was subjected to NGS analysis, individual phage clones were also picked and analyzed with phage spot ELISA. Positive clones were subjected to SANGER sequencing.

CD28 = experiment: phage spot ELISA on CD28; assay type: binding; details: for S/N: phage spot ELISA signal/noise; for ELISA: phage spot ELISA signal
Text: as §1, §2

[1] = S3 Table sheet CD28-1 (panning campaign 1)
[2] = S3 Table sheet CD28-2 (panning campaign 2)

Compound	S/N (CRD7)	ELISA (CRD7)	S/N (CD28; [1])	ELISA (CD28; [1])	further results
CC[C@H](C)[C@@H]1NC(=O)[C@@H]2CCCN2C(=O)[C@@H]2CSSC[C@H](NC(=O)[C@H](CCC(=O)O)NC(=O)[C@H](CCC(=O)O)NC(=O)[C@H](CO)NC(=O)[C@H](CO)NC(=O)[C@H](CCCCN)NC(=O)[C@H](C(C)C)NC(=O)[C@@H]3CCCN3C(=O)[C@H](C(C)C)NC(=O)CNC(=O)[C@H](Cc3ccc(O)cc3)NC(=O)[C@@H]3CCCN3C(=O)[C@H](CCCNC(=N)N)NC1=O)C(=O)N[C@@H](CCC(=O)O)C(=O)N[C@@H](CCCNC(=N)N)C(=O)N[C@@H](CC(C)C)C(=O)N[C@H]1CSSC[C@H](NC(=O)[C@H](CC(N)=O)NC(=O)[C@H]([C@@H](C)O)NC(=O)[C@H](C(C)C)NC(=O)CNC(=O)[C@H](CC(C)C)NC(=O)[C@H](CCCCN)NC(=O)[C@H](CCCNC(=N)N)NC1=O)C(=O)N[C@@H](CCCNC(=N)N)C(=O)N[C@@H](C(C)C)C(=O)N[C@@H](Cc1c[nH]cn1)C(=O)N[C@H](C(=O)NCC(=O)O)CSSC[C@H](NC(=O)[C@@H]1CCCN1)C(=O)N[C@@H](CCC(=O)O)C(=O)N2 [5ji4-CRD7-2] (H-PCECPIRPYGVPVKSSEECERLCRKLGVTNCRVHCG-OH; disulfide 2-35, 4-19, 23-31)					ELISA signal (CRD7): 0.37; ELISA s/n (CRD7): 4.60
CSCC[C@@H]1NC(=O)[C@@H]2CSSC[C@H](NC(=O)[C@H]([C@@H](C)O)NC(=O)[C@H]([C@@H](C)O)NC(=O)[C@H](C)NC(=O)[C@H](Cc3c[nH]c4ccccc34)NC(=O)[C@H](CC(=O)O)NC(=O)[C@H](CC(N)=O)NC1=O)C(=O)N[C@@H](CCCNC(=N)N)C(=O)N[C@@H](C(C)C)C(=O)N[C@@H](Cc1c[nH]cn1)C(=O)N[C@H](C(=O)NCC(=O)O)CSSC[C@H](NC(=O)[C@@H]1CCCN1)C(=O)N[C@@H](CCC(=O)O)C(=O)N[C@H]1CSSC[C@H](NC(=O)[C@H](CCC(=O)O)NC(=O)[C@H](CCC(=O)O)NC(=O)[C@H](CO)NC(=O)[C@H](CO)NC(=O)[C@H](CO)NC(=O)[C@H](C(C)C)NC(=O)[C@H]([C@@H](C)O)NC(=O)[C@H](Cc3ccc(O)cc3)NC(=O)[C@H]([C@@H](C)O)NC(=O)[C@H](CCC(=O)O)NC(=O)CNC(=O)[C@H](CC(N)=O)NC(=O)[C@H](C(C)C)NC(=O)[C@H](CC(=O)O)NC1=O)C(=O)NCC(=O)N[C@@H](CCCNC(=N)N)C(=O)N[C@@H](CC(C)C)C(=O)N2 [5ji4-CRD7-3] (H-PCECDVNGETYTVSSSEECGRLCMNDWATTCRVHCG-OH; disulfide 2-35, 4-19, 23-31)					ELISA signal (CRD7): 0.65; ELISA s/n (CRD7): 9.52
PCECDVNGETYTVSSSEECGRLCMNDWATTCRVHCG [CRD7 clone 7, phage clone, 5JI4 library, CRD7 panning]	14.5714	0.918			
PCECDVNGETYTVSSSEECGRLCMQPWAHTCRVHCG [CRD7 clone 9, phage clone, 5JI4 library, CRD7 panning]	4.522	0.312			
PCECDVNGETYTVSSSEECGRLCMTDWVTSCRVHCG [CRD7 clone 8, phage clone, 5JI4 library, CRD7 panning]	5.905	0.372			
PRECDEDNIWIIANSSEECERLCRKLGVTNCRVHCG [CD28-1 clone 9, phage clone, 5JI4 library, CD28-1 panning]			1.511	0.213	
PWNANVNGETYTVSSSEECERLCSAGLVNSCRVHCG [CD28-2 clone 1, phage clone, 5JI4 library, CD28-2 panning]					S/N (CD28; [2]): 7.9375; ELISA (CD28; [2]): 0.508
PYECWRGQYFIIYKSSEECERLCRKLGVTNCRVHCG [CD28-1 clone 11, phage clone, 5JI4 library, CD28-1 panning]			2.209	0.201	
RANAFWVVLVPDGGSSEECERLCRKLGVTNCRVHCG [CD28-1 clone 4, phage clone, 5JI4 library, CD28-1 panning]			2.932	0.4	
RANATEWVPWIIYQSSEECERLCRKLGVTNCRVHCG [CD28-1 clone 2, phage clone, 5JI4 library, CD28-1 panning]			5.637	0.5	
